Paper PMC6054517, “Design and synthesis of novel oridonin analogues as potent anticancer agents” (Journal of Enzyme Inhibition and Medicinal Chemistry, 2018)

Legend:
Type in all cases: cell-based, human
Bel7402 = experiment: MTT antiproliferative assay, Bel7402 cells; settings: Homo sapiens, Bel-7402; MTT, 48 h, means ± SD, n = 3
Description: (§1) Human gastric cancer (AGS), human differentiation of advanced gastric cancer (MGC803), human colorectal cancer (HCT116), human lung cancer (A549), human hepatocellular carcinoma (Bel7402) and human cervical cancer (HeLa) cell lines were obtained from the State Key Laboratory of Natural Resources and Functional Molecules of the Changbai Mountain (Yanbian University) and maintained in Dulbecco’s modified Eagle’s medium and RPMI Media 1640 (RPMI1640), supplemented with 10% foetal bovine serum 100 IU/ml penicillin, […] and 2 mmol/l L-glutamine (Sigma) at 37 °7 in a humidified atmosphere containing 5% CO2.
(§2) All six human cancer cell lines and normal L02 cells were seeded in 96-well plates at the appropriate densities to ensure exponential growth throughout the experimental period (9 × 10^3 cells per well) and then allowed to adhere for 24 h. The cells were then treated for 48 h with four serial dilutions (100, 50, 10, and 1 µM) of each compound. 5-Fluorouracil (5-FU) was used as the positive control. After incubation for 48 h, 10 µl MTT solution was added to each well to give a final concentration of 2 mg ml^−1. The plates were then incubated for further 4 h. After incubation, the MTT solution was removed and 150 µl DMSO was added to each well to solubilise the formed product. To ensure complete solubilisation, the plates were shaken vigorously for 10 min at room temperature. The optometric density (OD) was read on a microplate reader (ELx800, BioTek, Highland Park, Winooski, VT) at a wavelength of 492 nm and the data were subsequently analysed. The percentage of cell growth inhibition was calculated from the following equation: inhibitory rate (%) = [1–(ODtreated–ODblank)/(ODcontrol–ODblank)] × 100.
(§3) The MTT assay was performed using a standard protocol.

AGS = experiment: MTT antiproliferative assay, AGS cells; settings: Homo sapiens, AGS, 48 h, MTT, means ± SD, n = 3
Description: as §1, §2, §3

Hela = experiment: MTT antiproliferative assay, HeLa cells; settings: Homo sapiens, HeLa; MTT, 48 h, means ± SD, n = 3
Description: as §1, §2, §3

HCT116 = experiment: MTT antiproliferative assay, HCT116 cells; settings: MTT, 48 h, means ± SD, n = 3
Description: as §1, §2, §3

MGC803 = experiment: MTT antiproliferative assay, MGC803 cells; settings: Homo sapiens, MGC-803; MTT, 48 h, means ± SD, n = 3
Description: as §1, §2, §3

A549 = experiment: MTT antiproliferative assay, A549 cells; settings: Homo sapiens, A549; MTT, 48 h, means ± SD, n = 3
Description: as §1, §2, §3

Structure (SMILES) | IC50 (Bel7402) [µM] | IC50 (AGS) [µM] | IC50 (Hela) [µM] | IC50 (HCT116; Homo sapiens, HCT-116, 48 h) [µM] | IC50 (MGC803) [µM] | IC50 (A549) [µM] | IC50 (HCT116) [µM]
CC1(C)CCC(O)C23COC(O)(C(O)C12)C12C(=O)C(=Cc4ccccc4)C(CCC31)C2O [Compound 2a, (1S,4aR,5S,6S,6aR,9S,11aS,14R,E)-8-benzylidene-1,5,6,14-tetrahydroxy-4,4-dimethyldecahydro-1H-6,11b-(epoxymethano)-6a,9-methanocyclohepta[a]naphthale-n-7(8H)-one] | 4.97 ± 0.56 | > 100 | > 100 | 47.1 ± 4.32 | 9.13 ± 0.82 | > 100 | 
CC1(C)CCC(O)C23COC(O)(C(O)C12)C12C(=O)C(=Cc4cccc(F)c4)C(CCC31)C2O [Compound 2b, (1S,4aR,5S,6S,6aR,9S,11aS,14R,E)-8-(3-fluorobenzylidene)-1,5,6,14-tetrahydroxy-4,4-dimethyldecahydro-1H-6,11b-(epoxymethano)-6a,9-methanocyclohepta[a]n-aphthalen-7(8H)-one] | > 100 | 13.9 ± 1.5 | > 100 | 36.6 ± 2.43 | 23.6 ± 1.48 | 47.4 ± 3.49 | 
CC1(C)CCC(O)C23COC(O)(C(O)C12)C12C(=O)C(=Cc4ccc(F)cc4)C(CCC31)C2O [Compound 2c, (1S,4aR,5S,6S,6aR,9S,11aS,14R,E)-8-(4-fluorobenzylidene)-1,5,6,14-tetrahydroxy-4,4-dimethyldecahydro-1H-6,11b-(epoxymethano)-6a,9-methanocyclohepta[a]n-aphthalen-7(8H)-one] | 12.6 ± 1.05 | 14.3 ± 2.43 | > 100 | 10.2 ± 1.12 | > 100 | 59.6 ± 4.75 | 
CC1(C)CCC(O)C23COC(O)(C(O)C12)C12C(=O)C(=Cc4cccc(Cl)c4)C(CCC31)C2O [Compound 2d, (1S,4aR,5S,6S,6aR,9S,11aS,14R,E)-8-(3-chlorobenzylidene)-1,5,6,14-tetrahydrox-y-4,4-dimethyldecahydro-1H-6,11b-(epoxymethano)-6a,9-methanocyclohepta[a]-naphthalen-7(8H)-one] | 16.9 ± 1.3 | 14.1 ± 1.65 | 15.2 ± 1.47 | 19.8 ± 3.19 | 2.13 ± 0.13 | 12.7 ± 1.56 | 
CC1(C)CC[C@H](O)C23CO[C@](O)([C@@H](O)[C@H]12)[C@]12C(=O)/C(=C/c4ccc(Cl)cc4)[C@H](CC[C@@H]31)[C@H]2O [Compound 2e, (1S,4aR,5S,6S,6aR,9S,11aS,14R,E)-8-(4-chlorobenzylidene)-1,5,6,14-tetrahydroxy-4,4-dimethyldecahydro-1H-6,11b-(epoxymethano)-6a,9-methanocyclohepta[a]-naphthalen-7(8H)-one] | 9.66 ± 1.15 | 15.3 ± 1.78 | > 100 | 14 ± 1.94 | 7.27 ± 0.74 | 23.1 ± 3.63 | 
Cc1ccccc1/C=C1/C(=O)[C@]23[C@H](O)[C@H]1CC[C@H]2C12CO[C@]3(O)[C@@H](O)[C@@H]1C(C)(C)CC[C@@H]2O [Compound 2f, (1S,4aR,5S,6S,6aR,9S,11aS,14R,E)-1,5,6,14-tetrahydroxy-4,4-dimethyl-8-(2-methylbenzylidene)decahydro-1H-6,11b-(epoxymethano)-6a,9-methanocyclohepta[a]-naphthalen-7(8H)-one] | > 100 | > 100 | > 100 | 59 ± 3.37 | 22.8 ± 1.25 | > 100 | 
Cc1cccc(/C=C2/C(=O)[C@]34[C@H](O)[C@H]2CC[C@H]3C23CO[C@]4(O)[C@@H](O)[C@@H]2C(C)(C)CC[C@@H]3O)c1 [Compound 2g, (1S,4aR,5S,6S,6aR,9S,11aS,14R,E)-1,5,6,14-tetrahydroxy-4,4-dimethyl-8-(3-methylbenzylidene)decahydro-1H-6,11b-(epoxymethano)-6a,9-methanocyclohepta[a]naphthalen-7(8H)-one] | 24.2 ± 2.27 | 10.8 ± 2.39 | 22.3 ± 1.92 | 14.2 ± 1.31 | 17.7 ± 1.13 | 66.9 ± 5.29 | 
Cc1ccc(/C=C2/C(=O)[C@]34[C@H](O)[C@H]2CC[C@H]3C23CO[C@]4(O)[C@@H](O)[C@@H]2C(C)(C)CC[C@@H]3O)cc1 [Compound 2h, (1S,4aR,5S,6S,6aR,9S,11aS,14R,E)-1,5,6,14-tetrahydroxy-4,4-dimethyl-8-(4-methylbenzylidene)decahydro-1H-6,11b-(epoxymethano)-6a,9-methanocyclohepta[a]naphthalen-7(8H)-one] | 11.3 ± 0.98 | 5.26 ± 1.09 | 28.7 ± 2.13 | 10.1 ± 1.39 | 27.2 ± 2.38 | 18 ± 1.49 | 
COc1ccccc1/C=C1/C(=O)[C@]23[C@H](O)[C@H]1CC[C@H]2C12CO[C@]3(O)[C@@H](O)[C@@H]1C(C)(C)CC[C@@H]2O [Compound 2j, (1S,4aR,5S,6S,6aR,9S,11aS,14R,E)-1,5,6,14-tetrahydroxy-8-(2-methoxybenzylidene)-4,4-dimethyldecahydro-1H-6,11b-(epoxymethano)-6a,9-methanocyclohepta-[a]naphthalen-7(8H)-one] | 3.56 ± 0.52 | 2.87 ± 0.58 | 24.7 ± 2.08 | 5.08 | 10.4 ± 1.29 | 7.89 ± 0.99 | 5.48 ± 0.64
COc1ccc(/C=C2/C(=O)[C@]34[C@H](O)[C@H]2CC[C@H]3C23CO[C@]4(O)[C@@H](O)[C@@H]2C(C)(C)CC[C@@H]3O)cc1 [Compound 2k, (1S,4aR,5S,6S,6aR,9S,11aS,14R,E)-1,5,6,14-tetrahydroxy-8-(4-methoxybenzylidene)-4,4-dimethyldecahydro-1H-6,11b-(epoxymethano)-6a,9-methanocyclohepta-[a]naphthalen-7(8H)-one] | 4.52 ± 0.46 | 2.91 ± 0.42 | 68.8 ± 5.32 | 2.99 ± 0.32 | 2.79 ± 0.38 | 16.8 ± 2.51 | 
COc1ccc(/C=C2/C(=O)[C@]34[C@H](O)[C@H]2CC[C@H]3C23CO[C@]4(O)[C@@H](O)[C@@H]2C(C)(C)CC[C@@H]3O)cc1OC [Compound 2m, (1S,4aR,5S,6S,6aR,9S,11aS,14R,E)-8-(3,4-dimethoxybenzylidene)-1,5,6,14-tetrahydroxy-4,4-dimethyldecahydro-1H-6,11b-(epoxymethano)-6a,9-methanocyclohepta[a]naphthalen-7(8H)-one] | 3.15 ± 0.64 | 17.6 ± 2.32 | 30.7 ± 2.9 | 11.1 ± 1.83 | 17.7 ± 1.67 | 13.6 ± 1.89 | 
COc1cc(/C=C2/C(=O)[C@]34[C@H](O)[C@H]2CC[C@H]3C23CO[C@]4(O)[C@@H](O)[C@@H]2C(C)(C)CC[C@@H]3O)cc(OC)c1OC [Compound 2n, (1S,4aR,5S,6S,6aR,9S,11aS,14R,E)-1,5,6,14-tetrahydroxy-4,4-dimethyl-8-(3,4,5-trimethoxybenzylidene)decahydro-1H-6,11b-(epoxymethano)-6a,9-methanocyclo-hepta[a]naphthalen-7(8H)-one] | 14.6 ± 1.21 | 17.3 ± 2.41 | 8.89 ± 0.94 | 18.6 ± 1.78 | 28 ± 1.73 | 15.8 ± 1.47 | 
CCCOc1ccc(/C=C2/C(=O)[C@]34[C@H](O)[C@H]2CC[C@H]3C23CO[C@]4(O)[C@@H](O)[C@@H]2C(C)(C)CC[C@@H]3O)cc1 [Compound 2o, (1S,4aR,5S,6S,6aR,9S,11aS,14R,E)-1,5,6,14-tetrahydroxy-4,4-dimethyl-8-(4-propoxybenzylidene)decahydro-1H-6,11b-(epoxymethano)-6a,9-methanocyclohepta-[a]naphthalen-7(8H)-one] | 6.54 ± 0.94 | 10 ± 1.88 | 8.21 ± 1.2 | 3.09 ± 0.41 | 10.9 ± 1.39 | 15.3 ± 1.31 | 
CC(C)=CCOc1cccc(/C=C2/C(=O)[C@]34[C@H](O)[C@H]2CC[C@H]3C23CO[C@]4(O)[C@@H](O)[C@@H]2C(C)(C)CC[C@@H]3O)c1 [Compound 2q, (1S,4aR,5S,6S,6aR,9S,11aS,14R,E)-1,5,6,14-tetrahydroxy-4,4-dimethyl-8-(3-((3-methylbut-2-en1yl)oxy)benzylidene)decahydro-1H-6,11b-(epoxymethano)-6a,9-methanocyclohepta[a]naphthalen-7(8H)-one] | 8.62 ± 1.12 | 3.1 ± 0.41 | 5.43 ± 0.85 | 7.63 ± 0.81 | 9.1 ± 1.72 | 4.66 ± 0.3 | 
